Test results taken from patent publication US20110152246A1, “NOVEL INHIBITORS OF HEPATITIS C VIRUS REPLICATION” (InterMune, Inc., priority 2009, published 2011).
Read-outs that look alike come from different tables or passages of the source.

Tested on: Huh7 cells containing HCV replicons with an integrated luciferase reporter gene
Experiment: HCV Replicon Assay (luciferase reporter)
Type: cell-based
Details: Hepatitis C virus
Method: Huh7 cells containing HCV replicons with an integrated luciferase reporter gene are maintained at 37° C. in 5% CO2 in Dulbecco's modified Eagle's medium (DMEM; Mediatech, Herndon, Va.) containing 10% heat-inactivated fetal bovine serum (FBS; Mediatech, Herndon, Va.), 2 mM L-glutamine (Cambrex Bioscience, Walkersville, Md.), 1% non essential amino acids (Lonza, Walkersville, Md.), 50 IU/mL penicillin (Mediatech, Herndon, Va.), […] streptomycin (Mediatech, Herndon, Va.) and 0.5 mg/mL G418 (Promega, Madison, Wis.). Cells are sub-divided 1:3 or 4 every 2-3 days.
24 h prior to the assay, Huh7 cells containing sub-genomic HCV replicons are collected, counted, and plated in Nunclon 96-well tissue culture plates (ThermoFisher, Rochester, N.Y.) at 5000 cells/well in […] standard maintenance medium (above) and incubated in the conditions above. To initiate the assay, culture medium is removed, and replaced with […] maintenance media lacking G418. Test compounds are serially diluted three-fold in dimethyl sulfoxide (DMSO) in two duplicate rows for each EC50 determination. These compound solutions are diluted ten-fold in DMEM lacking serum and G418. […] of these compound solutions in media are added to duplicate tissue culture plates. The final volume is 100 μL with a DMSO concentration of 1%. Compound concentrations are adjusted to appropriately define a dose response curve. Typical dilution series range from […] to 1.69 nM final concentrations to 1 nM to 16.9 fM final. Plates are incubated at 37° C. for approximately 48 hr.
Following incubation, media is removed from one of the two duplicate plates and replicon-reporter luciferase activity is measured using a Bright-Glo luciferase assay kit (Promega, Madison, Wis.) according to manufacturer's instructions. Semi-log plots of luciferase activity versus the logarithm of compound concentration are fit to a 4-parameter logistic function using XLfit software (IDBS Inc., Guildford, UK) to determine EC50.

[1] = Huh-7, Huh7 HCV replicon cells, luciferase activity, approximately 48 hr incubation, read-out: EC50

| Compound | EC50 [1] | EC50 (Huh-7, 48 h, read-out: EC50 nM) |
| --- | --- | --- |
| COC(=O)N[C@H](C(=O)N1CCC[C@H]1C(=O)Nc1ccc2cc(NC(=O)[C@@H]3CCCN3C(=O)[C@@H](NC(=O)OC)C(C)C)ccc2c1)C(C)C [Compound 204] | 10 to 100 nM |  |
| COC(=O)N[C@H](C(=O)N1CCC[C@H]1C(=O)Nc1ccc(-c2nc3ccc(NC(=O)[C@@H]4CCCN4C(=O)[C@@H](NC(=O)OC)C(C)C)cc3s2)cc1)C(C)C [Compound 403] | < 10 nM |  |
| O=C(Cc1ccccc1)N1CCC[C@H]1c1ncc(-c2ccc(-c3ccc(-c4cnc([C@@H]5CCCN5C(=O)Cc5ccccc5)[nH]4)c4ccccc34)cc2)[nH]1 [Compound 302] |  | < 10 nM |
| COC(=O)N[C@H](C(=O)N1CCC[C@H]1C(=O)Nc1ccc2cc(-c3ccc(NC(=O)[C@@H]4CCCN4C(=O)Cc4ccccc4)cc3)ccc2c1)C(C)C [Compound 203] | < 10 nM |  |
| CC(C)[C@H](Nc1ncccn1)C(=O)N1CCC[C@H]1c1nc(-c2ccc3cc(-c4ccc5[nH]c([C@@H]6CCCN6C(=O)[C@@H](Nc6ncccn6)C(C)C)nc5c4)ccc3c2)c[nH]1 [Compound 420] | < 10 nM |  |
| COC(=O)N[C@H](C(=O)N1CCC[C@H]1c1nc(-c2ccc(-c3ccc(-c4c[nH]c([C@@H]5CCCN5C(=O)[C@@H](NC(=O)OC)C(C)C)n4)c4cccnc34)cc2)c[nH]1)C(C)C [Compound 314] | < 10 nM |  |
| COC(=O)N[C@H](C(=O)N1CCC[C@H]1C(=O)OCC(=O)c1ccc(-c2ccc(C(=O)COC(=O)[C@@H]3CCCN3C(=O)[C@@H](NC(=O)OC)C(C)C)c3c2CCCC3)cc1)C(C)C [Compound 303] | 10 to 100 nM |  |
| COC(=O)N[C@H](C(=O)N1CCC[C@H]1c1ncc(-c2ccc(-c3ccc(-c4cnc([C@@H]5CCCN5C(=O)[C@@H](NC(=O)OC)C(C)C)[nH]4)c4ccccc34)cc2)[nH]1)C(C)C [Compound 301] | < 10 nM |  |
| COC(=O)N[C@@H](C(=O)N1CCC[C@H]1c1ncc(-c2ccc(-c3ccc(-c4cnc([C@@H]5CCCN5C(=O)[C@H](NC(=O)OC)C(C)C)[nH]4)c4ccccc34)cc2)[nH]1)C(C)C [Compound 324] | < 10 nM |  |
| COC(=O)NCC(=O)N1CCC[C@H]1c1ncc(-c2ccc(-c3ccc(-c4cnc([C@@H]5CCCN5C(=O)CNC(=O)OC)[nH]4)c4ccccc34)cc2)[nH]1 [Compound 325] | < 10 nM |  |
| COC(=O)N[C@H](C(=O)N1CCC[C@H]1C(=O)Nc1ccc(-c2ccc3cc(NC(=O)[C@@H]4CCCN4C(=O)[C@@H](NC(=O)OC)C(C)C)ccc3c2)cc1)C(C)C [Compound 201] | < 10 nM |  |
| COC(=O)N[C@H](C(=O)N1CCC[C@H]1c1nc(-c2ccc(-c3ccc(-c4c[nH]c([C@@H]5CCCN5C(=O)[C@@H](NC(=O)OC)C(C)C)n4)c4ncccc34)cc2)c[nH]1)C(C)C [Compound 315] | < 10 nM |  |
| O=S(=O)(Cc1ccccc1)N1CCC[C@H]1c1ncc(-c2ccc(-c3ccc(-c4cnc([C@@H]5CCCN5S(=O)(=O)Cc5ccccc5)[nH]4)c4ccccc34)cc2)[nH]1 [Compound 326] | > 100 nM |  |
| COC(=O)N[C@H](C(=O)N1CCC[C@H]1c1nc(-c2ccc(-c3ccc(-c4c[nH]c([C@@H]5CCCN5C(=O)[C@@H](NC(=O)OC)C(C)C)n4)c4oc(C)nc34)cc2)c[nH]1)C(C)C [Compound 323] | < 10 nM |  |
| COC(=O)N[C@H](C(=O)N1CCC[C@H]1C(=O)Nc1ccc(NC(=O)c2ccc(NC(=O)[C@@H]3CCCN3C(=O)[C@@H](NC(=O)OC)C(C)C)cc2)cc1)C(C)C [Compound 102] |  | 10 to 100 nM |
| COC(=O)N[C@H](C(=O)N1CCC[C@H]1C(=O)Nc1ccc2cc(-c3ccc(NC(=O)[C@@H]4CCCN4C(=O)[C@@H](NC(=O)OC)C(C)C)nc3)ccc2c1)C(C)C [Compound 207] | < 10 nM |  |
| COC(=O)N[C@H](C(=O)N1CCC[C@H]1c1nc(-c2ccc3cc(-c4ccc5[nH]c([C@@H]6CCCN6C(=O)[C@@H](NC(=O)OC)C(C)C)nc5c4)ccc3c2)c[nH]1)C(C)C [Compound 402] | < 10 nM |  |
| COC(=O)N[C@H](C(=O)N1CCC[C@H]1C(=O)Nc1ccc2cc(-c3ccc(NC(=O)[C@@H]4CCCN4C(=O)Cc4ccccc4)nc3)ccc2c1)C(C)C [Compound 209] | < 10 nM |  |
| O=C(Nc1ccc(-c2ccc3cc(NC(=O)[C@@H]4CCCN4C(=O)Cc4ccccc4)ccc3c2)cc1)[C@@H]1CCCN1C(=O)Cc1ccccc1 [Compound 211] | < 10 nM |  |
| COC(=O)N[C@H](C(=O)N1CCC[C@H]1C(=O)OCC(=O)c1ccc(-c2ccc(C(=O)COC(=O)[C@@H]3CCCN3C(=O)[C@@H](NC(=O)OC)C(C)C)c3c2CCC3)cc1)C(C)C [Compound 305] | > 100 nM |  |

| Compound | EC50 [1] | EC50 (Huh-7, 48 h, read-out: EC50 nM) |
| --- | --- | --- |
| COC(=O)NC(C(=O)N1CCC[C@H]1c1nc(-c2ccc(-c3ccc(-c4c[nH]c([C@@H]5CCCN5C(=O)[C@@H](NC(=O)OC)C(C)C)n4)c4c3CCCC4)cc2)c[nH]1)C(C)C (stereo partly shown) [Compound 304] | < 10 nM |  |
| COC(=O)N[C@H](C(=O)N1CCC[C@H]1c1nc(-c2ccc(-c3ccc(-c4c[nH]c([C@@H]5CCCN5C(=O)[C@@H](NC(=O)OC)C(C)C)n4)c4c3ccn4C)cc2)c[nH]1)C(C)C [Compound 327] | < 10 nM |  |
| COC(=O)N[C@H](C(=O)N1CCC[C@H]1c1nc(-c2ccc(-c3ccc(-c4c[nH]c([C@@H]5CCCN5C(=O)Cc5ccccc5)n4)cc3)c3ccccc23)c[nH]1)C(C)C [Compound 308] | < 10 nM |  |
| COC(=O)N[C@H](C(=O)N1CCC[C@H]1C(=O)Nc1ccc2cc(NC(=O)[C@@H]3CCCN3C(=O)Cc3ccccc3)ccc2c1)C(C)C [Compound 205] | > 100 nM |  |
| O=C(Nc1ccc2cc(NC(=O)[C@@H]3CCCN3C(=O)Cc3ccccc3)ccc2c1)[C@@H]1CCCN1C(=O)Cc1ccccc1 [Compound 210] | > 100 nM |  |
| COC(=O)N[C@H](C(=O)N1CCC[C@H]1C(=O)Nc1ccc2cc(-c3cnc(NC(=O)[C@@H]4CCCN4C(=O)[C@@H](NC(=O)OC)C(C)C)nc3)ccc2n1)C(C)C [Compound 212] | < 10 nM |  |
| COC(=O)N[C@H](C(=O)N1CCC[C@H]1c1nc(-c2ccc(-c3ccc4cc(-c5c[nH]c([C@]6(C)CCCN6C(=O)[C@@H](NC(=O)OC)C(C)C)n5)ccc4c3)cc2)c[nH]1)C(C)C [Compound 222] | < 10 nM |  |
| COC(=O)N[C@H](C(=O)N1CCC[C@H]1C(=O)Nc1ccc(NC(=O)c2ccc(NC(=O)[C@@H]3CCCN3C(=O)Cc3ccccc3)cc2)cc1)C(C)C [Compound 103] |  | 10 to 100 nM |
| COC(=O)N[C@H](C(=O)N1CCC[C@@]1(C)c1nc(-c2ccc(-c3ccc(-c4c[nH]c([C@]5(C)CCCN5C(=O)[C@@H](NC(=O)OC)C(C)C)n4)c4c3OCO4)cc2)c[nH]1)C(C)C [Compound 328] | < 10 nM |  |
| COC(=O)N[C@H](C(=O)N1CCC[C@H]1c1nc(-c2ccc(-c3ccc(-c4c[nH]c([C@@H]5CCCN5C(=O)[C@@H](NC(=O)OC)C(C)C)n4)c4sc(C)nc34)cc2)c[nH]1)C(C)C [Compound 310] | < 10 nM |  |
| COC(=O)N[C@H](C(=O)N1CCC[C@H]1c1ncc(-c2ccc(-c3ccc(-c4cnc([C@@H]5CCCN5C(=O)Cc5ccccc5)[nH]4)c4ccccc34)cc2)[nH]1)C(C)C [Compound 307] |  | < 10 nM |
| COC(=O)N[C@H](C(=O)N1CCC[C@H]1c1nc(-c2ccc(-c3ccc(-c4c[nH]c([C@@H]5CCCN5C(=O)[C@@H](NC(=O)OC)C(C)C)n4)c4c3OCO4)cc2)c[nH]1)C(C)C [Compound 312] | < 10 nM |  |
| COC(=O)N[C@H](C(=O)N1CCCC[C@H]1c1nc(-c2ccc3cc(-c4ccc5[nH]c([C@@H]6CCCCN6C(=O)[C@@H](NC(=O)OC)C(C)C)nc5c4)ccc3c2)c[nH]1)C(C)C [Compound 418] | < 10 nM |  |
| COC(=O)N[C@H](C(=O)N1CCC[C@@]1(C)c1nc(-c2ccc(-c3ccc(-c4c[nH]c([C@]5(C)CCCN5C(=O)[C@@H](NC(=O)OC)C(C)C)n4)c4scnc34)cc2)c[nH]1)C(C)C [Compound 329] | < 10 nM |  |
| O=C(Nc1ccc2cc(-c3ccc(NC(=O)[C@@H]4CCCN4C(=O)Cc4ccccc4)nc3)ccc2c1)[C@@H]1CCCN1C(=O)Cc1ccccc1 [Compound 206] | < 10 nM |  |
| COC(=O)N[C@H](C(=O)N1CCOC[C@H]1c1nc(-c2ccc3cc(-c4ccc5[nH]c([C@@H]6COCCN6C(=O)[C@@H](NC(=O)OC)C(C)C)nc5c4)ccc3c2)c[nH]1)C(C)C [Compound 419] | < 10 nM |  |
| COC(=O)N[C@H](C(=O)N1CCC[C@H]1C(=O)Nc1ccc2cc(-c3cnc(NC(=O)[C@@H]4CCCN4C(=O)[C@@H](NC(=O)OC)C(C)C)nc3)ccc2c1)C(C)C [Compound 221] | < 10 nM |  |
| COC(=O)N[C@H](C(=O)N1CCC[C@H]1C(=O)Nc1ccc(-c2ccc3nc(NC(=O)[C@@H]4CCCN4C(=O)[C@@H](NC(=O)OC)C(C)C)ccc3c2)cn1)C(C)C [Compound 217] | < 10 nM |  |
| COC(=O)N[C@H](C(=O)N1CCC[C@H]1c1ncc(-c2ccc(-c3ccc(-c4cnc([C@@H]5CCCN5C(=O)[C@@H](NC(=O)OC)C(C)C)[nH]4)c4c3OCCO4)cc2)[nH]1)C(C)C [Compound 309] | < 10 nM |  |
| O=C(Nc1ccc(-c2ccc3nc(NC(=O)[C@@H]4CCCN4C(=O)Cc4ccccc4)ccc3c2)cn1)[C@@H]1CCCN1C(=O)Cc1ccccc1 [Compound 216] |  | < 10 nM |
